In patent US5804601A, “Aromatic hydroxamic acid compounds, their production and use” (Takeda Chemical Industries, Ltd., priority 1995, dated 1998) one finds EC50 data, which are given here for 26 compounds.

This experiment has as its system rat mixed cerebral cell culture. Nature of the experiment: Neutralizing effect on LPS-induced cytotoxicity in a rat mixed cerebral cell culture system (LIC assay), MTT method. It is filed as cell-based. The following applies: concentration giving a recovery rate of 50%, usually 4-5 days incubation, read-out: ED50 (the source's name). Here is the method:
Neutralizing effect on lipopolysaccharide (LPS)--induced cytotoxicity in a rat mixed cerebral cell culture system (LIC assay)
LPS, a substance known to activate glial cells (astrocytes, microglia), was added to a rat mixed cerebral cell culture system and the compounds which would neutralize the cytotoxicity induced by LPS were screened by the following method.
(1) Neonatal rat mixed cerebral cell culture
From neonatal Crj:CD (SD) rats (1-3 days old, Charles-River Japan, Ltd.), the brains were isolated and placed in ice-cold D-MEM/10% FCS (Dulbecco's cell culture minimal essential medium supplemented with 10% of fetal calf serum, 100 units/ml of penicillin and 100 μg/ml of streptomycin). Then, mixed cerebral cell cultures were carried out in the following steps.
1. The cerebrums were separated from the enucleated brains and the meninges was removed under the stereoscopic microscope.
2. The cerebrums were placed in a nylon-mesh (100-200 μm) bag to filter with the aid of a rubber policeman.
3. Using ice-cold D-MEM/10% FCS, the cells were washed 3 times (1000 rpm, 8 min.). Then, this cell suspension was filtered through a cell strainer (40 μm mesh, Falcon 2340) and the number of viable cells was counted by the trypan blue method.
4. The cells, were seeded in wells of a 96-well microtiter plate (Nunc) at a cell density of 1×10^5 cells/100 μl/well, and started a cell culture at 37° C.
5. One week later, 100 μl/well of D-MEM/10% FCS was added.
6. The plate was further incubated for about 1-2 weeks and the neutralizing activity of the test compound was evaluated by the following method.
(2) Evaluation of neutralizing activity in LPS-induced cytotoxicity
1. Following the rat mixed cerebral cell culture described in (1) (after 2-3 weeks of incubation), the medium was discarded from the respective wells of the 96-well microtiter plate, and 50 μl/well of fresh D-MEM/2% FCS was added.
2. A test sample and LPS (Difco, E. coli 011: B4, Bacto) of a suitable concentration, 25 μl each per well, were respectively added. D-MEM/2% FCS was used as the medium.
As the test sample, each of the compounds shown in Table 32 was dissolved in DMSO at a concentration of 10 ^-2 M and the solution was diluted with D-MEM/2% FCS and submitted for assay.
3. After a suitable period (usually 4-5 days) of incubation, the degree of cytotoxic effect was assessed by the microscopic observation, and MTT method.
(3) MTT [3-(4,5-dimethylthiazol-2-yl)-2,5-diphenyltetra zolium bromide] method
Ten μl of MTT solution (5 mg/ml, Sigma) dissolved in phosphate-buffered saline was added to each well. After 4-6 hours of incubation (37° C., under 10% CO2), 100 μl/well of 0.01N-hydrochloric acid containing 10% SDS was added, whereby the formed formazan was dissolved. After complete dissolution, the absorbance (540-590 nm) was measured for each well.
The ED50 values were determined by calculating the recovery rates by means of the following equation and plotting the concentrations of compounds giving a recovery rate of 50% on graph paper.
Recovery rate (%)=(C-B)×100/(A-B)
[A: the absorbance at 550 nm of the control well to which only the medium had been added
B: the absorbance at 550 nm of the well to which LPS had been added
C: the absorbance at 550 nm of the well to which both LPS and the test compound had been added]
Take `CC(=O)ONC(=O)CCCCCc1ccc2ccccc2n1` [Compound 7-4, O-acetyl-6-(2-quinolyl)hexanohydroxamic acid]: the EC50 worked out at 400 nM.

Take `CC1=C(C)C(=O)C(C(CCCCCC(=O)NO)c2ccc(F)cc2)=C(C)C1=O` (centres unmarked) [Compound E, 7-(4-Fluorophenyl)-7-(3,5,6-trimethyl-1,4-benzoquinon-2-yl)heptanohydroxamic acid]: the EC50 was 600 nM.

As for `CC1=C(C)C(=O)C(C(CCCCCC(=O)NOC(=O)C(C)(C)C)c2ccccc2)=C(C)C1=O` (centres unmarked) [Compound 7-17, O-pivaloyl-7-(3,5,6-trimethylbenzoquinon-2-yl)-7-phenylheptanohydroxamic acid], the EC50 turned out to be 200 nM.

On to `N#CC(CCCCCC(=O)NOC(=O)c1ccccc1)c1cccc2ccccc12` (centres unmarked) [Compound 7-12, O-benzoyl-7-cyano-7-(1-naphthyl)heptano-hydroxamic acid], for which the EC50 came to 30 nM.

As for `N#CC(CCCCCC(=O)NO)c1cccc2ccccc12` (centres unmarked) [Compound 3-2, 7-Cyano-7-(1-naphthyl)heptanohydroxamic acid], the EC50 came out at 30 nM.

Take `CC(=O)ONC(=O)CCCCCCc1ccc2ccccc2c1O` [Compound 7-3, O-acetyl-7-(1-hydroxy-2-naphthyl)heptano-hydroxamic acid]: the EC50 was determined as 400 nM.

For the compound `CCC(=O)ONC(=O)CCCCCc1ccc2ccccc2n1` [Compound 7-7, O-propionyl-6-(2-quinolyl)hexanohydroxamic acid], the EC50 turned out to be 500 nM.

Take `CC1=C(C)C(=O)C(C(CCCCCC(=O)NOC(=O)c2ccccc2)c2ccccc2)=C(C)C1=O` (centres unmarked) [Compound 7-15, O-benzoyl-7-(3,5,6-trimethylbenzoquinon-2-yl)-7-phenylheptanohydroxamic acid]: the EC50 was 500 nM.

Turning to `COc1ccc(C(CCCCC(=O)NOC(C)=O)C2=C(C)C(=O)c3ccccc3C2=O)cc1` (centres unmarked) [Compound 7-1, O-Acetyl-6-(4-methoxyphenyl)-6-(3-methyl-1,4-naphthoquinon-2-yl)hexanohydroxamic acid], the EC50 stood at 50 nM.

In the case of `CC1=C(C)C(=O)C(C(CCCCCC(=O)NO)c2ccccc2)=C(C)C1=O` (centres unmarked) [Compound C, 7-(3,5,6-Trimethyl-1,4-benzoquinon-2-yl)-7-phenylheptanohydroxamic acid], the EC50 was determined as 300 nM.

Take `CCC(=O)ONC(=O)CCCCC(C1=C(C)C(=O)c2ccccc2C1=O)c1ccc(OC)cc1` (centres unmarked) [Compound 7-6, O-propionyl-6-(4-methoxyphenyl)-6-(3-methyl-1,4-naphthoquinon-2-yl)hexanohydroxamic acid]: the EC50 was determined as 50 nM.

For the compound `COc1ccc(C(CCCCC(=O)NOC(=O)c2ccccc2)C2=C(C)C(=O)c3ccccc3C2=O)cc1` (centres unmarked) [Compound 7-14, O-benzoyl-6-(4-me-Ehoxyphenyl)-6-(3-methyl-1,4-naphthoquinon-2-yl)hexanohydroxamic acid], the EC50 was 200 nM.

`CC1=C(C(CCCCC(=O)NO)c2ccc(F)cc2)C(=O)c2ccccc2C1=O` (centres unmarked) [Compound B, 6-(4-Fluorophenyl)-6-(3-methyl-1,4-naphtho-quinon-2-yl)hexanohydroxamic acid]: the EC50 was found to be 500 nM.

Turning to `O=C(CCCC/C=C\c1ccc2ccccc2n1)NO` [Compound 1-4, (Z)-7-(2-quinolyl)-6-heptenohydroxamic acid], the EC50 is 40 nM.

On to `O=C(CCCCCC(c1ccccc1)c1ccc2ccccc2c1O)NO` (centres unmarked) [Reference Example 46-1, 7-(1-Hydroxy-2-naphthyl)-7-phenylheptanohydroxamic acid], for which the EC50 stood at 50 nM.

`O=C(CCCCCc1ccc2ccccc2c1O)NO` [Reference Example 46-2, 6-(1-Hydroxy-2-naphthyl)hexanohydroxamic acid]: the EC50 is 500 nM.

Regarding `CC1=C(C)C(=O)C(C(CCCCCC(=O)NOC(=O)C(C)C)c2ccccc2)=C(C)C1=O` (centres unmarked) [Compound 7-11, O-isobutyryl-7-(3,5,6-trimethylbenzoquinon-2-yl)-7-phenylheptanohydroxamicacid], the EC50 turned out to be 200 nM.

Turning to `O=C(CCCCCc1ccc2ccccc2n1)NOC(=O)c1ccccc1` [Compound 7-16, O-benzoyl-6-(2-quinolyl)hexanohydroxamic acid], the EC50 worked out at 300 nM.

With `COc1ccc(C(CCCCC(=O)NOC(=O)C(C)C)C2=C(C)C(=O)c3ccccc3C2=O)cc1` (centres unmarked) [Compound 7-10, O-isobutyryl-6-(4-methoxyphenyl)-6-(3-methyl-1,4-naphthoquinon-2-yl)hexanohydroxamic acid], the EC50 worked out at 300 nM.

As to `O=C(CCCCCCc1ccc2ccccc2n1)NO` [Compound 1-3, 7-(2-quinolyl)heptanohydroxamic acid], the EC50 is 20 nM.

For the compound `CC1=C(C)C(=O)C(C(CCCCCC(=O)NO)c2ccc(C)cc2)=C(C)C1=O` (centres unmarked) [Compound D, 7-(3,5,6-Trimethyl-1,4-benzoquinon-2-yl)-7-(4-methylphenyl)heptanohydroxamic acid], the EC50 is 100 nM.

For `CC1=C(C)C(=O)C(C(CCCCCC(=O)NOC(=O)CC(C)C)c2ccccc2)=C(C)C1=O` (centres unmarked) [Compound 7-9, O-isovaleryl-7-(3,5,6-trimethylbenzoquinon-2-yl)-7-phenylheptanohydroxamicacid], the EC50 worked out at 200 nM.

In the case of `CCC(=O)ONC(=O)CCCCCC(C#N)c1cccc2ccccc12` (centres unmarked) [Compound 7-8, O-propionyl-7-cyano-7-(1-naphthyl)heptanohydroxamic acid], the EC50 was determined as 30 nM.

On to `CCC(=O)ONC(=O)CCCCCC(C1=C(C)C(=O)C(C)=C(C)C1=O)c1ccccc1` (centres unmarked) [Compound 7-5, O-propionyl-7-(3,5,6-trimethylbenzoquinon-2-yl)-7-phenylheptanohydroxamic acid], for which the EC50 stood at 50 nM.

Regarding `CC(=O)ONC(=O)CCCCCC(C1=C(C)C(=O)C(C)=C(C)C1=O)c1ccccc1` (centres unmarked) [Compound 7-2, O-acetyl-7-(3,5,6-trimethylbenzoquinon-2-yl)-7-phenylheptanohydroxamic acid], the EC50 is 50 nM.

As for `N#CC(CCCCC(=O)NOC(=O)c1ccccc1)c1cccc2ccccc12` (centres unmarked) [Compound 7-13, O-benzoyl-6-cyano-6-(1-naphthyl)hexanohyroxamic acid], the EC50 amounted to 50 nM.
